The source of these data is patent US9278942B2, “Non-steroidal compounds as androgen receptor modulators” (FLX Discoveries Oy, priority 2011, dated 2016).

Experiment [1] deals with T1, human AR (Homo sapiens, UniProt P10275).
T1 construct: expressed in transfected cells; host or cells: COS-1
T1 sequence (P10275 1-920): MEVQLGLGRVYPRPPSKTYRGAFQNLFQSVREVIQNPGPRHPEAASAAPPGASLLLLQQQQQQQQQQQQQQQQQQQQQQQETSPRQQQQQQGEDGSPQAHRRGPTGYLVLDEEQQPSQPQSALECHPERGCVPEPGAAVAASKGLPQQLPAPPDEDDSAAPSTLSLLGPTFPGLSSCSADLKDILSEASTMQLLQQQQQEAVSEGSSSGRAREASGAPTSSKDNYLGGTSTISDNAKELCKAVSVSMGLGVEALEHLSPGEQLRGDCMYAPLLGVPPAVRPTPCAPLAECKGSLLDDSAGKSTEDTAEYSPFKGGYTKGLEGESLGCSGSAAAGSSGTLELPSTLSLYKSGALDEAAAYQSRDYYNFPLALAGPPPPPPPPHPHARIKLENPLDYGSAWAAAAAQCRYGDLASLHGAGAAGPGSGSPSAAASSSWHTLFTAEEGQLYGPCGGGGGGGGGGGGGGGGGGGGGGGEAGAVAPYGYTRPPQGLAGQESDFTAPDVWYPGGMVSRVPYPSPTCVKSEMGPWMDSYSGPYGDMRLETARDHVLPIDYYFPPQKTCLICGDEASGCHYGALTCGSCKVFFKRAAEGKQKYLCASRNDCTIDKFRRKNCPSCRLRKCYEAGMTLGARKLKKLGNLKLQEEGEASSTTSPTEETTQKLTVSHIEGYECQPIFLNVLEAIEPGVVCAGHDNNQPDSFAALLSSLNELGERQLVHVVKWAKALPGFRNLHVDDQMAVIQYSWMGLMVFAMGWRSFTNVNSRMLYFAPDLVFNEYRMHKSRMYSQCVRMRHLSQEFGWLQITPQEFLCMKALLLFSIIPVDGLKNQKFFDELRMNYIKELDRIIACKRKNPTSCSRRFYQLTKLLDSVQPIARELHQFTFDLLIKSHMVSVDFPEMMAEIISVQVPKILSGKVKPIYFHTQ
Put plainly: AR antagonism assay: inhibition of transcriptional activation of AR (Probasin-luc reporter, COS-1 cells). The experiment is classed as cell-based. Conditions: compound 10.0 μM, relative luciferase response: 100% for testosterone (no antiandrogenic effect), 0% for complete antagonism; for remaining activity at 10 µM: COS-1, 18 h, read-out: AR antagonism against 100 nM testosterone ± S.D. The protocol: Determination of the Antiandrogen Activity.
Testosterone was bought from Sigma Chemical Co. (St. Louis, Mo.) and hydroxyflutamide from Chemos GmbH. One day before transfection, COS-1 cells (from ATCC) were seeded into 1 ml of DMEM (Dulbecco's modified Eagle medium, Gibco) with 10% dextran-charcoal-treated fetal bovine serum and 0.25% (vol/vol) Penicillin-Streptomycin (Euroclone) at a density of 70×10^3 cells/well. After medium change to DMEM 2.5% FBS, the cells were transfected for 24 hours with 10 ng/well of human AR expression vector pSG5-hAR, 100 ng/well of reporter plasmid Probasin-luc, and 10 ng/well of control plasmid pCMV-β-gal by using the TransIT method (Micrus Bio TransIT LT1, Transfection Reagent). After the transfection, the cells received treatment of test compounds giving final concentration of 10 μM for each compound. In the antagonist test the wells were also treated with 100 nM final concentration of testosterone. After 18 hours, the cells were washed, lysed and assayed for luciferase and normalization for β-galactosidase activities and protein concentrations. The cells were washed with 100 μl of cold phosphate buffered saline (PBS) and lysed with 35 μl 1× Reporter lysis Buffer (Promega) and frozen (−70° C.) for 30 minutes. Cell lysates were placed in 1.5-ml propylene tubes and centrifuged at 13200×g for 5 minutes at room temperature. For β-galactosidase assay 10 μl of supernatant from each cell extract was transferred to a 96-well plate (96 well Elisa Microplates, PS, Microcon) and incubated for 10 minutes at 37° C. with 65 μl of reaction mixture consisting 0.76 μl 100×Mg-buffer, 12.5 μl ONPG (4 mg/ml), and 54.3 μl of sodium-phosphate buffer (pH 7). The reaction was stopped with treatment of 125 μl Na2CO3. For luciferase assay 10 μl of the supernatant was transferred to a 96-well plate (Greiner Microlon lumitrac 200) and treated with 30 μl of luciferase assay substrate solution (Promega Luciferase Assay System E1501). For the study of protein concentrations 5 μl of the supernatant was transferred to a 96-well plate (Elisa Microplates, PS, Microcon) and mixed with 200 μl of Bio-rad protein assay reagent. The luciferase activities were measured with Thermo Luminoscan Ascent scanner and the protein concentrations and β-galactosidase activities with Thermo Labsystem Multiscan Ex scanner. Also blank and control samples were measured. During the maintenance, transfection, and treatment with tested compounds the cells were incubated in humidified atmosphere with 5% carbon dioxide at 37° C.

Experiment [2] deals with T1, human AR. Put plainly: Competitive AR binding assay against [3H]-R1881 in transiently transfected COS-1 cells. Conditions: compound 13.4 μM, [3H]-R1881 1.34 nM, complete inhibition equals 100%; for inhibition at 13.4 µM: read-out: Inhibition of [3H]-R1881 binding at 1.34 nM ± S.D. The method, then: Competitive AR Binding Assay.
AR binding was measured by a competitive assay against [^3H]-R1881 (PerkinElmer) in transiently transfected COS-1 cells. One day before transfection, COS-1 cells were seeded into 2 ml of DMEM (Dulbecco's modified Eagle medium, Gipco) with 10% dextran-charcoal-treated fetal bovine serum and 0.25% (vol/vol) Penicillin-Streptomysin (Euroclone) at a density of 140×10^3 cells/well. After medium change to DMEM 2.5% FBS, the cells were transfected for 24 hours with 10 ng/well of human AR expression vector pSG5 hAR by using the TransIT method (Micrus Bio TransIT LT1, Transfection Reagent). After 36 hours, the cells where treated with tested compounds using 10000 fold molarities compared to labelled R1881 (1.34 nM). After 2 hours of incubation at 37° C., the medium was removed. The cells were removed from the wells to 150 μl of 1× phosphate buffered saline (PBS), transferred to Eppendorf tubes and centrifuged at 4° C. using 4000×g for 5 min, and then washed twice with 150 μl of PBS. The cell pellets were dissolved to 50 μl of 0.5M NaOH and incubated for 15 min at 56° C., after which the samples (three replicates for each sample compound) were transferred to liquid twinkle tubes with 3 ml of OptiPhase HiSafe 3 twinkle solution (PerkinElmer) and radioactivity of AR-bound [^3H]-R1881 determined. The results were measured with LKB WALLAC 1214 racbeta equipment. The ability of test compounds to bind AR is reported as reduction in bound radioactivity obtained with 1.34 nM [^3H]-R1881.
The results (% inhibition) were calculated as: % inhibition=100−[100×(averagecompound/average[3H]-R1881)].

What is called inhibition is how much of the control response was suppressed.

Where two headings read alike, the source gives them in different places.

As to `N#Cc1ccc(C2=NOC3CCCC23)cc1C(F)(F)F` (single isomer, unassigned) [Example 85a, 4-(4,5,6,6a-Tetrahydro-3aH-cyclopenta[d]isoxazol-3-yl)-2-trifluoromethyl-benzonitrile], the “AR antagonism against 100 nM testosterone ± S.D.” value (shortened to “AR antagonism”) on human AR [1] came to 44.9 ± 3.6%. Besides, on human AR [2] (Table 2), the inhibition at 13.4 µM was determined as 87.6 ± 0.3%.
Consider `N#Cc1ccc(C2=NOC3CCCC23)cc1C(F)(F)F` (single isomer, unassigned) [Example 85b, 4-(4,5,6,6a-Tetrahydro-3aH-cyclopenta[d]isoxazol-3-yl)-2-trifluoromethyl-benzonitrile], for which the “AR antagonism” value at human AR [1] worked out at 18.9 ± 0.5%. The “Inhibition of [3H]-R1881 binding at 1.34 nM ± S.D.” value (“Inhibition of [3H]-R1881 binding” for short) at human AR [2] (Table 2) is listed as 91.8 ± 1.7%.
As for `N#Cc1ccc(C2=NOC3CCCCCCC23)c(C(F)(F)F)c1` (single isomer, unassigned) [Example 93a, 4-(3a,4,5,6,7,8,9,9a-Octahydro-cycloocta[d]isoxazol-3-yl)-3-trifluoromethyl-benzonitrile], on human AR [1], the “AR antagonism” value is 9.4 ± 0.3%. In addition, the inhibition at 13.4 µM at human AR [2] (Table 3) is 87.2 ± 2.9%.
`N#Cc1ccc(C2=NOC3CCCCCCC23)c(C(F)(F)F)c1` (single isomer, unassigned) [Example 93b, 4-(3a,4,5,6,7,8,9,9a-Octahydro-cycloocta[d]isoxazol-3-yl)-3-trifluoromethyl-benzonitrile]: the “AR antagonism” value on human AR [1] was 65.5 ± 9.0%. Further, the “Inhibition of [3H]-R1881 binding” value on human AR [2] (Table 3) turned out to be 76.0 ± 4.8%.
Regarding `N#Cc1cccc(C2=NOC3CCCCC23)c1C(F)(F)F` (single isomer, unassigned) [Example 94a, 3-(3a,4,5,6,7,7a-Hexahydro-benzo[d]isoxazol-3-yl)-2-trifluoromethyl-benzonitrile], the “AR antagonism” value at human AR [1] came to 17.8 ± 3.9%. Further, the inhibition at 13.4 µM at human AR [2] (Table 3) turned out to be 97.4 ± 0.4%.
Turning to `N#Cc1cccc(C2=NOC3CCCCC23)c1C(F)(F)F` (single isomer, unassigned) [Example 94b, 3-(3a,4,5,6,7,7a-Hexahydro-benzo[d]isoxazol-3-yl)-2-trifluoromethyl-benzonitrile], the “AR antagonism” value at human AR [1] is listed as 5.4 ± 1.7%. For the same compound, the “Inhibition of [3H]-R1881 binding” value on human AR [2] (Table 3) was determined as 97.6 ± 0.2%.
Turning to `Fc1ccc(C2=NOC3CCCC23)cc1C(F)(F)F` (centres unmarked) [Example 19ab, 3-(4-Fluoro-3-trifluoromethyl-phenyl)-4,5,6,6a-tetrahydro-3aH-cyclopenta[d]-isoxazole], on human AR [1], the remaining activity at 10 µM was 54.6 ± 2.3%. Also, on human AR [2] (Table 2), the inhibition at 13.4 µM was found to be 84.6 ± 4.9%.
Regarding `Fc1ccc(C2=NOC3CCCC23)c(C(F)(F)F)c1` (centres unmarked) [Example 20a, 3-(4-Fluoro-2-trifluoromethyl-phenyl)-4,5,6,6a-tetrahydro-3aH-cyclopenta[d]isoxazole], on human AR [1], the remaining activity at 10 µM stood at 23.2 ± 0.5%. In addition, the inhibition at 13.4 µM at human AR [2] (Table 3) was found to be 89.3 ± 3.8%.
Regarding `Fc1ccc(C2=NOC3CCCC23)c(C(F)(F)F)c1` (centres unmarked) [Example 20b, 3-(4-Fluoro-2-trifluoromethyl-phenyl)-4,5,6,6a-tetrahydro-3aH-cyclopenta[d]isoxazole], the “AR antagonism” value on human AR [1] is 37.4 ± 7.3%. The “Inhibition of [3H]-R1881 binding” value on human AR [2] (Table 3) is given as 85.3 ± 2.8%.
With `O=[N+]([O-])c1ccc(C2=NOC3CCCC23)c(C(F)(F)F)c1` (centres unmarked) [Example 22ab, 3-(4-Nitro-2-trifluoromethyl-phenyl)-4,5,6,6a-tetrahydro-3aH-cyclopenta[d]isoxazole], the remaining activity at 10 µM on human AR [1] came out at 21.8 ± 4.1%. Further, the inhibition at 13.4 µM on human AR [2] (Table 3) was 89.3 ± 4.7%.
Turning to `Fc1ccc(C2=NOC3CCCCC23)cc1C(F)(F)F` (centres unmarked) [Example 35ab, 3-(4-Fluoro-3-trifluoromethyl-phenyl)-3a,4,5,6,7,7a-hexahydro-benzo-[d]-isoxazole], the remaining activity at 10 µM at human AR [1] was found to be 53.4 ± 5.4%. Moreover, the inhibition at 13.4 µM at human AR [2] (Table 2) was 88.5 ± 4.2%.
The matching figures for `Fc1ccc(C2=NOC3CCCCC23)c(C(F)(F)F)c1` (centres unmarked) [Example 36a, 3-(4-Fluoro-2-trifluoromethyl-phenyl)-3a,4,5,6,7,7a-hexahydro-benzo[d]-isoxazole]: 49.7 ± 5.1% and 84.6 ± 0.7%.
Take `Fc1ccc(C2=NOC3CCCCC23)c(C(F)(F)F)c1` (centres unmarked) [Example 36b, 3-(4-Fluoro-2-trifluoromethyl-phenyl)-3a,4,5,6,7,7a-hexahydro-benzo[d]-isoxazole]: the “AR antagonism” value at human AR [1] was determined as 30.0 ± 6.1%. For the same compound, the “Inhibition of [3H]-R1881 binding” value on human AR [2] (Table 2) was determined as 87.7 ± 3.0%.
Take `O=[N+]([O-])c1ccc(C2=NOC3CCCCC23)cc1C(F)(F)F` (centres unmarked) [Example 37ab, 3-(4-Nitro-3-trifluoromethyl-phenyl)-3a,4,5,6,7,7a-hexahydro-benzo-[d]-isoxazole]: the remaining activity at 10 µM at human AR [1] turned out to be 10.6 ± 1.6%. Besides, the inhibition at 13.4 µM at human AR [2] (Table 1) stood at 93.5 ± 0.9%.
As for `Fc1ccc(C2=NOC3CCCCCC23)cc1C(F)(F)F` (centres unmarked) [Example 39ab, 3-(4-Fluoro-3-trifluoromethyl-phenyl)-4,5,6,7,8,8a-hexahydro-3aH-cyclohepta[d]isoxazole], the remaining activity at 10 µM at human AR [1] is 43.8 ± 2.4%. Further, on human AR [2] (Table 2), the inhibition at 13.4 µM worked out at 55.7 ± 5.8%.
The matching figures for `Fc1ccc(C2=NOC3CCCCCC23)c(C(F)(F)F)c1` (centres unmarked) [Example 40a, 3-(4-Fluoro-2-trifluoromethyl-phenyl)-4,5,6,7,8,8a-hexahydro-3aH-cyclohepta[d]isoxazole]: 28.8 ± 2% and 88.8 ± 3.1%.
